Experiments:
Format in all cases: in vivo
[1] = system: Lolium multiflorum Lam.; test: Test Example 5: herbicidal effect by foliage application, plastic box (symbol K); settings: 320 g/ha, 3 weeks after application
Procedure, shortened: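 Leaf-applied emulsion, water-diluted to a preset herbicide dose, on two-week-old seedlings raised in a 25° C. to 30° C. greenhouse; injury rated at 3 weeks using earlier criteria.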

[2] = system: Galium spurium; test: Test Example 4: herbicidal effect by soil treatment (symbol Q); settings: application herbicide amount 320 g/ha
Procedure, shortened: (§1)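 Seeds were sown in sterilized diluvial soil, covered with about 1.5 cm of soil, and the soil surface was sprayed with a water-diluted emulsion of the compound at a predetermined rate. Plants grew in a greenhouse at 25° C. to 30° C.; effects were scored visually 3 weeks after application.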

[3] = system: soybean; test: Test Example 5: effect on crop by foliage application, plastic box (symbol d); settings: 320 g/ha, 3 weeks after application
Procedure, shortened: (§2)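 Diluvial soil, sterilized and boxed (21 × 13 × 7 cm), received spot-sown seed covered by about 1.5 cm soil; plants were then greenhouse-grown at 25–30° C.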

[4] = system: Monochoria vaginalis; test: Test Example 2: herbicidal activity, application during weed generation in submerged conditions (symbol C); settings: Table 23; application herbicide amount 320 g/ha; grade 0-5 by criteria of Test Example 1
Procedure, shortened: (§3)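 Flooded-soil post-emergence test: emulsion of compound, water-diluted to target rate, applied to paddy water surface at 1–2 leaf stage of mixed-sown weeds (alluvial soil, 4 cm water, 25–30° C. greenhouse); visual rating 3 weeks after application.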

[5] = system: Digitaria ciliaris; test: Test Example 4: herbicidal effect by soil treatment (symbol F); settings: application herbicide amount 320 g/ha
Procedure, shortened: as §1

[6] = system: corn; test: Test Example 5: effect on crop by foliage application, plastic box (symbol c); settings: 320 g/ha, 3 weeks after application
Procedure, shortened: as §2

[7] = system: Chenopodium album; test: Test Example 4: herbicidal effect by soil treatment (symbol O); settings: application herbicide amount 320 g/ha
Procedure, shortened: as §1

[8] = system: rice plant; test: Test Example 5: effect on crop by foliage application, plastic box (symbol b); settings: 320 g/ha, 3 weeks after application
Procedure, shortened: as §2

[9] = system: corn; test: Test Example 4: effect on crop by soil treatment (symbol c); settings: application herbicide amount 320 g/ha
Procedure, shortened: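 Diluvial soil (sterilized) in boxes; seeds placed spot-wise alongside weed species; ~1.5 cm covering soil. Greenhouse, 25–30° C.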

[10] = system: Apera spica-venti; test: Test Example 4: herbicidal effect by soil treatment (symbol L); settings: application herbicide amount 320 g/ha
Procedure, shortened: as §1

[11] = system: Echinochloa crus-galli var. crus-galli; test: Test Example 4: herbicidal effect by soil treatment (symbol H); settings: application herbicide amount 320 g/ha
Procedure, shortened: as §1

[12] = system: rapeseed; test: Test Example 4: effect on crop by soil treatment (symbol g); settings: application herbicide amount 320 g/ha
Procedure, shortened: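 Soil-treatment setup: crop and weed seeds were spot-sown into sterilized diluvial soil, then buried beneath approximately 1.5 cm of it, and the boxes were housed in a 25–30° C. greenhouse.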

[13] = system: Echinochloa oryzacola Vasing.; test: Test Example 2: herbicidal activity, application during weed generation in submerged conditions (symbol A); settings: Table 23; application herbicide amount 320 g/ha; grade 0-5 by criteria of Test Example 1
Procedure, shortened: as §3

[14] = system: Scirpus juncoides; test: Test Example 2: herbicidal activity, application during weed generation in submerged conditions (symbol B); settings: Table 23; application herbicide amount 320 g/ha; grade 0-5 by criteria of Test Example 1
Procedure, shortened: as §3

[15] = system: Abutilon theophrasti; test: Test Example 4: herbicidal effect by soil treatment (symbol M); settings: application herbicide amount 320 g/ha
Procedure, shortened: as §1

[16] = system: Monochoria vaginalis; test: Test Example 1: herbicidal activity, application before weed generation in submerged conditions (symbol C); settings: application herbicide amount 320 g/ha
Procedure, shortened: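 Greenhouse growth at 25–30 °C lasted 3 weeks after treatment, when each weed was graded 0–5 by herbicidal ratio. Treatment was a diluted emulsion applied to the water surface of 4 cm-submerged alluvial soil on the sowing day.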

[17] = system: Avena fatua; test: Test Example 4: herbicidal effect by soil treatment (symbol I); settings: application herbicide amount 320 g/ha
Procedure, shortened: as §1

SMILES	K: Lolium multiflorum Lam., herbicidal effect grade [1]	Q: Galium spurium, herbicidal effect grade [2]	d: soybean, effect on crop grade [3]	Herbicidal effect grade, C: Monochoria vaginalis [4]	F: Digitaria ciliaris, herbicidal effect grade [5]	c: corn, effect on crop grade [6]	O: Chenopodium album, herbicidal effect grade [7]	b: directly sowed rice plant, effect on crop grade [8]	c: corn, effect on crop grade [9]	L: Apera spica-venti, herbicidal effect grade [10]	H: Echinochloa crus-galli var. crus-galli, herbicidal effect grade [11]	g: rapeseed, effect on crop grade [12]	Herbicidal effect grade, A: Echinochloa oryzacola Vasing. [13]	Herbicidal effect grade, B: Scirpus juncoides [14]	M: Abutilon theophrasti, herbicidal effect grade [15]	Herbicidal effect grade, C: Monochoria vaginalis [16]	I: Avena fatua, herbicidal effect grade [17]
CON=C(C)CC1CC(O)=C(c2c(C)cc(C)cc2OC)C1=O (centres unmarked) [6-037, 3-hydroxy-2-(2-methoxy-4,6-dimethylphenyl)-5-{2-(methoxyimino)propyl}cyclopent-2-enone]	5 (Herbicidal ratio of 90% or more (almost completely withered))	0 (Herbicidal ratio of 5% or lower (almost no effect))	4 (Herbicidal ratio of 70% or higher and lower than 90%)	4 (Herbicidal ratio of 70% or higher and lower than 90%)	5 (Herbicidal ratio of 90% or more (almost completely withered))	5 (Herbicidal ratio of 90% or more (almost completely withered))	0 (Herbicidal ratio of 5% or lower (almost no effect))	5 (Herbicidal ratio of 90% or more (almost completely withered))	5 (Herbicidal ratio of 90% or more (almost completely withered))	5 (Herbicidal ratio of 90% or more (almost completely withered))	5 (Herbicidal ratio of 90% or more (almost completely withered))	3 (Herbicidal ratio of 40% or higher and lower than 70%)	5 (Herbicidal ratio of 90% or more (almost completely withered))	4 (Herbicidal ratio of 70% or higher and lower than 90%)	5 (Herbicidal ratio of 90% or more (almost completely withered))	4 (Herbicidal ratio of 70% or higher and lower than 90%)	5 (Herbicidal ratio of 90% or more (almost completely withered))
CON=C(C)CC1CC(O)=C(c2c(C)cc(-c3ccc(C)cc3)cc2C)C1=O (mixture of isomers) [6-018]	5 (Herbicidal ratio of 90% or more (almost completely withered))	0 (Herbicidal ratio of 5% or lower (almost no effect))	3 (Herbicidal ratio of 40% or higher and lower than 70%)	3 (Herbicidal ratio of 40% or higher and lower than 70%)	5 (Herbicidal ratio of 90% or more (almost completely withered))	5 (Herbicidal ratio of 90% or more (almost completely withered))	0 (Herbicidal ratio of 5% or lower (almost no effect))	5 (Herbicidal ratio of 90% or more (almost completely withered))	0 (Herbicidal ratio of 5% or lower (almost no effect))	5 (Herbicidal ratio of 90% or more (almost completely withered))	5 (Herbicidal ratio of 90% or more (almost completely withered))	0 (Herbicidal ratio of 5% or lower (almost no effect))	5 (Herbicidal ratio of 90% or more (almost completely withered))	4 (Herbicidal ratio of 70% or higher and lower than 90%)	0 (Herbicidal ratio of 5% or lower (almost no effect))	4 (Herbicidal ratio of 70% or higher and lower than 90%)	0 (Herbicidal ratio of 5% or lower (almost no effect))
CON=C(C)CC1CC(O)=C(c2c(C)cc(-c3ccc(OC)cc3)cc2C)C1=O (mixture of isomers) [6-017]	5 (Herbicidal ratio of 90% or more (almost completely withered))	0 (Herbicidal ratio of 5% or lower (almost no effect))	0 (Herbicidal ratio of 5% or lower (almost no effect))	0 (Herbicidal ratio of 5% or lower (almost no effect))	5 (Herbicidal ratio of 90% or more (almost completely withered))	5 (Herbicidal ratio of 90% or more (almost completely withered))	0 (Herbicidal ratio of 5% or lower (almost no effect))	5 (Herbicidal ratio of 90% or more (almost completely withered))	0 (Herbicidal ratio of 5% or lower (almost no effect))	5 (Herbicidal ratio of 90% or more (almost completely withered))	3 (Herbicidal ratio of 40% or higher and lower than 70%)	0 (Herbicidal ratio of 5% or lower (almost no effect))	4 (Herbicidal ratio of 70% or higher and lower than 90%)	3 (Herbicidal ratio of 40% or higher and lower than 70%)	0 (Herbicidal ratio of 5% or lower (almost no effect))	0 (Herbicidal ratio of 5% or lower (almost no effect))	0 (Herbicidal ratio of 5% or lower (almost no effect))
COCC(=O)CC1CC(O)=C(c2c(C)cc(C)cc2C)C1=O (centres unmarked) [2-007]	4 (Herbicidal ratio of 70% or higher and lower than 90%)	0 (Herbicidal ratio of 5% or lower (almost no effect))	0 (Herbicidal ratio of 5% or lower (almost no effect))	0 (Herbicidal ratio of 5% or lower (almost no effect))	5 (Herbicidal ratio of 90% or more (almost completely withered))	1 (Herbicidal ratio of 5% or higher and lower than 20%)	0 (Herbicidal ratio of 5% or lower (almost no effect))	3 (Herbicidal ratio of 40% or higher and lower than 70%)	0 (Herbicidal ratio of 5% or lower (almost no effect))	3 (Herbicidal ratio of 40% or higher and lower than 70%)	5 (Herbicidal ratio of 90% or more (almost completely withered))	4 (Herbicidal ratio of 70% or higher and lower than 90%)	3 (Herbicidal ratio of 40% or higher and lower than 70%)	0 (Herbicidal ratio of 5% or lower (almost no effect))	0 (Herbicidal ratio of 5% or lower (almost no effect))	0 (Herbicidal ratio of 5% or lower (almost no effect))	0 (Herbicidal ratio of 5% or lower (almost no effect))
